# Measurements from US20230391765A1, “HETEROBIFUNCTIONAL COMPOUNDS AS DEGRADERS OF ENL” (ICAHN SCHOOL OF MEDICINE AT MOUNT SINAI, priority 2020, published 2023).
# Target: T1, ENL (Homo sapiens, UniProt Q03111)
# T1 construct: Cells were lysed and expression of endogenous ENL was assessed by Western blot analysis; host or cells: MV4;11
# T1 sequence (Q03111 1-559): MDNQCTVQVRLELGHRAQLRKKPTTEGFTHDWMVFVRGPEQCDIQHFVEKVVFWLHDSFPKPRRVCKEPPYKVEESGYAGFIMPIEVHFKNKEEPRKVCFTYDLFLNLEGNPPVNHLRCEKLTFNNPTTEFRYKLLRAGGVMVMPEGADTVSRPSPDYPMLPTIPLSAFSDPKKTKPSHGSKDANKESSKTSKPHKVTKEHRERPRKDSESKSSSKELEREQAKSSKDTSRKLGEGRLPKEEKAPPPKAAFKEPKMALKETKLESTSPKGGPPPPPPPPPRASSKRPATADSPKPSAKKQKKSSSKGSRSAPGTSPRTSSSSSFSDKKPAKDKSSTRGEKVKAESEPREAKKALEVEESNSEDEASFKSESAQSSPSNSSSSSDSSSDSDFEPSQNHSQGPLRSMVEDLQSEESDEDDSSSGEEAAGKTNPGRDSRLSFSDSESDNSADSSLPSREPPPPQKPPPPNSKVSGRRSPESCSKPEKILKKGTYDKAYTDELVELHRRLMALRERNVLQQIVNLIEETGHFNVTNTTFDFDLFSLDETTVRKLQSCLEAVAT
# Assay: Western blot of ENL protein levels in MV4; 11 cells
# Type: cell-based
# Details: 11 cells, 1 μM degrader with or without 1 μM MG132 for 6 h
# Description: MV4; 11 cells were treated with DMSO or the indicated compounds (the same panel of ENL degraders as shown in FIG. 4) at 1 μM and 10 μM for 24 h. Cells were lysed and expression of ENL was assessed by Western blot analysis.
# DMSO treated cells were used as control.
# MV4; 11 cells were treated with LQ076-122, or LQ081-107 at 0.3, 1, 3, 10, and 30 μM for 24 h. DMSO treated cells were used as control. Cells were lysed and expression of ENL and GAS41 was assessed by Western analysis.
# MV4; 11 cells were treated with DMSO or the indicated compounds at 1 μM and 10 μM for 6 h. Cells were lysed and expression of endogenous ENL was assessed by Western blot analysis.
# Cells were treated with 1 μM of ENL degrader with or without 1 μM proteasome inhibitor MG132 for 6 h.
# ENL degraders were dissolved in DMSO. DMSO with no degraders was used as the control. 1×10^6 leukemia cells were seeded in 5 mL medium. For prescreening of compounds, each test compound was added to the medium at 1 μM and 10 μM. Cells were collected after 24 h treatment. For the concentration-dependent treatment, candidate compounds were added to the medium at a series of concentration as indicated in figures. Cells were collected after 24 h treatment. For the time-course treatment, candidate compounds were added to the medium at a final concentration of 4 μM (MV4; 11 cells) or 8 μM (MOLM13 cells). Cells were collected at the indicated timepoints (in hours: 12, 16, 20, 24 and 36 h).
# After ENL degrader treatment, cells were collected, lysed, and total cell lysates were used for Western blot. The following primary antibodies were used: ENL (Cell Signaling Technology), GAS41 (Santa Cruz), GAPDH (Santa Cruz), β-actin (Sigma). Blots were detected using HRP-conjugated secondary antibodies.
row,SMILES,effect of proteasome inhibitor MG132 on the ENL degradation induced by the degrader
1,"Cc1ncsc1-c1ccc(CNC(=O)[C@@H]2C[C@@H](O)CN2C(=O)[C@@H](NC(=O)C2(F)CC2)C(C)(C)C)c(OCC(=O)NCCCCCCCNC(=O)c2ccc3c(c2)[C@H](NC(=O)c2cc(-c4ccc(C(=O)N(C)C)c(O)c4)on2)CC3)c1 [LQ108-63, 5-(4-(dimethylcarbamoyl)-3-hydroxyphenyl)-N-((R)-6-((7-(2-(2-(((2S,4R)-1-((S)-2-(1-fluorocyclopropane-1-carboxamido)-3,3-dimethylbutanoyl)-4-hydroxypyrrolidine-2-carboxamido)methyl)-5-(4-methylthiazol-5-yl)phenoxy)acetamido)heptyl)carbamoyl)-2,3-dihydro-1H-inden-1-yl)isoxazole-3-carboxamide]",partially blocks the ENL degradation

# Same assay, conditions: 11 cells, 10 μM, 24 h
row,SMILES,reduction of ENL protein levels
1,"Cn1ncc2cc(C(=O)Nc3ccc4[nH]c(CN5CCC(CCNC(=O)CCCCCCNc6cccc7c6C(=O)N(C6CCC(=O)NC6=O)C7=O)C5)nc4c3)ccc21 (stereo not drawn) [LQ076-98, N-(2-((3-(2-(7-((2-(2,6-dioxopiperidin-3-yl)-1,3-dioxoisoindolin-4-yl)amino)heptanamido)ethyl)pyrrolidin-1-yl)methyl)-1H-benzo[d]imidazol-5-yl)-1-methyl-1H-indazole-5-carboxamide]",effective in reducing ENL protein levels
2,"Cn1ncc2cc(C(=O)Nc3ccc4[nH]c(CN5CCC(CCNC(=O)CCCCCCCNc6cccc7c6C(=O)N(C6CCC(=O)NC6=O)C7=O)C5)nc4c3)ccc21 (stereo not drawn) [LQ076-99, N-(2-((3-(2-(8-((2-(2,6-dioxopiperidin-3-yl)-1,3-dioxoisoindolin-4-yl)amino)octanamido)ethyl)pyrrolidin-1-yl)methyl)-1H-benzo[d]imidazol-5-yl)-1-methyl-1H-indazole-5-carboxamide]",effective in reducing ENL protein levels
3,"Cc1ncsc1-c1ccc(CNC(=O)[C@@H]2C[C@@H](O)CN2C(=O)[C@@H](NC(=O)CCCCCCCCNC(=O)c2ccc(C(=O)Nc3ccc4[nH]c(CN5CCC[C@@H]5C)nc4c3)cc2)C(C)(C)C)cc1 [LQ076-120, N^1-(9-(((S)-1-((2S,4R)-4-hydroxy-2-((4-(4-methylthiazol-5-y)benzyl)carbamoyl)pyrrolidin-1-yl)-3,3-dimethyl-1-oxobutan-2-yl)amino)-9-oxononyl)-N^4-(2-(((S)-2-methylpyrrolidin-1-yl)methyl)-1H-benzo[d]imidazol-5-yl)terephthalamide]",effective in reducing ENL protein levels
4,"Cc1ncsc1-c1ccc(CNC(=O)[C@@H]2C[C@@H](O)CN2C(=O)[C@@H](NC(=O)CCCCCCCCCNC(=O)c2ccc(C(=O)Nc3ccc4[nH]c(CN5CCC[C@@H]5C)nc4c3)cc2)C(C)(C)C)cc1 [LQ076-121, N^1-(10-(((S)-1-((2S,4R)-4-hydroxy-2-((4-(4-methylthiazol-5-yl)benzyl)carbamoyl)pyrrolidin-1-yl)-3,3-dimethyl-1-oxobutan-2-yl)amino)-10-oxodecyl)-N^4-(2-(((S)-2-methylpyrrolidin-1-yl)methyl)-1H-benzo[d]imidazol-5-yl)terephthalamide]",effective in reducing ENL protein levels
5,"C[C@H]1CCCN1Cc1nc2cc(NC(=O)c3ccc(C(=O)NCCCCCCCCNc4cccc5c4C(=O)N(C4CCC(=O)NC4=O)C5=O)cc3)ccc2[nH]1 (stereo partly drawn) [LQ076-134, N^1-(8-((2-(2,6-dioxopiperidin-3-yl)-1,3-dioxoisoindolin-4-yl)amino)octyl)-N^4-(2-(((S)-2-methylpyrrolidin-1-yl)methyl)-1H-benzo[d]imidazol-5-yl)terephthalamide]",effective in reducing ENL protein levels
